# From US12590130B2, “Bipartite molecules and uses thereof in treating diseases associated with abnormal protein aggregates” (ACADEMIA SINICA, priority 2014, dated 2026)
# Assays:
# 109QmHtt [1] = assay: Filter trap assay of aggregated 109QmHtt in Neuro2a cells; format: cell-based
# Protocol: (§1) FIG. 4. Testing the ability of therapeutic peptides to decrease mHtt aggregation in Neuro2a cells overexpressing mHtt. Panel A: Filter trap assays and corresponding quantitation of cells (panel B) treated as indicated at 8 hours (T1), 24 hours (T2), or both (T1+2) after transfection with the 109QmHtt construct. […] Panel C: Western blots and quantitation (panel D) of RIPA-soluble (sol) and -insoluble (ins) fractions of Neuro2a cells overexpressing 25QHtt or 109QmHtt and treated as indicated. […] Panel E: Western blot of the 109QmHtt in cells treated as indicated. Note that MG132 blocked the effect of 8R10Q peptide with respect to decreasing insoluble 109QmHtt. Panel F: Quantitation of ratio of 109QmHtt in cells treated MG132 (+) over DMSO (−) in relationship to peptides. Statistical analysis conducted with one way ANOVA, *<0.05, **<0.01, ***<0.001, ns: not significant.
# Whether the peptides could modulate the aggregation propensity of mHtt was next investigated.
# 109QmHtt [2] = assay: Western blot of RIPA-soluble and -insoluble fractions of Neuro2a lysates; format: cell-based; details: peptide-treated samples
# Protocol: as §1
# For further characterization, Neuro2a lysates were separated into the RIPA-soluble (sol) and insoluble (ins) fractions ([…]). 8R10Q peptide decreased the level of mHtt in both the soluble and insoluble fractions as compared with water, 8R, or the scrambled (s8R10Q) control (FIG. 4, panel D). […]
# [3] = tested on: Neuro2a cells expressing 109QmHtt; assay: Cell growth curve of Neuro2a cells expressing 109QmHtt; format: cell-based, mouse; details: 109QmHtt with or without 12.5 μM H2O2; vs 8R or scrambled control
# Protocol: FIG. 5. Therapeutic effect of 8R10Q and 8R15Q in 109QmHtt-expressing cells. Panel A: Cell viability assay by MTT in Neuro2a cells expressing 25QHtt (left) or 109QmHtt (right) treated with H2O2 at 50 μM and the indicated peptide. Panel B: Cell growth curve of Neuro2a cells expressing 25QHtt or 109QmHtt treated with indicated peptide. The cells in right subpanel were further treated with H2O2 at 12.5 μM 16 hours after transfection. 109QmHtt cells growth was slower than that of the 25QHtt cells. 8R10Q treatment rescued the slow growth of Neuro2a cells by 109QmHtt with or without H2O2. Panel C: Micrographs of the phase contrast and fluorescent images of retinoic acid-differentiated Neu2a cells expressing GFP-25QHtt or GFP-109QmHtt (GFP) treated with the indicated peptide. Note the neurites of the differentiated cells. Panel D: Quantitation of the percentage of differentiated cells with neurites. Fewer 109QmHtt-expressing cells had neurites vs. 25QHtt-expressing cells. […] The experiments were conducted in triplicate and repeated twice. Statistical analysis was performed with one way ANOVA, *p<0.05; **p<0.01; ***p<0.001, ns: not significant.
# The expression of 109QmHtt reduced the growth of Neuro2a cells, and so did the lower levels of H2O2 (12.5 μM) (FIG. 5, panel B).
# R6/2 transgenic mice = assay: Therapeutic effect in R6/2 transgenic mice (function, blood sugar, lifespan); format: in vivo, mouse
# Excerpt: FIG. 6. 8R10Q ameliorated functional deterioration of R6/2 transgenic mice. Panel A: Longitudinal rotarod performance of wild type (WT) and R6/2 mice treated with PBS or 8R10Q peptide. Note the significant delay in motor deterioration of R6/2 mice treated with 8R10Q from 11 weeks of age. Panel B: T maze test of WT and R6/2 mice at 13 weeks of age. […] Panel C: The curves of blood sugar in serum of WT and R6/2 mice treated as indicated. […] Panel D: Lifespan of WT and R6/2 mice treated with PBS vs. 8R10Q. 100% of R6/2 mice died before 16 weeks of age. […] WT mice N=6/group; R6/2 mice N=10/group; statistical analysis performed with two way ANOVA (panels A and C), one way ANOVA (panel B), *p<0.05; **p<0.01; ***p<0.001, ns: not significant, and log-rank (Mantel-Cox) Test (D), ***p<0.0001.
# To test the therapeutic effect of the peptide in vivo, the 8R10Q peptide was delivered 6 days/week into the wild type (WT) or R6/2 transgenic mice through intranasal aspiration or continuously with the Alzet osmotic minipumps into the neostriatum. […] In fact, the 8R10Q-treated R6/2 mice performed even better than the 11 week-old PBS-treated mice on average. […] The R6/2 mice were previously reported to have diabetes. Bjorkqvist et al., Hum Mol Genet (2005) 14:565-74; and Hunt et al., Experimental Brain Res (2005) 166:220-9. […] To sum up, the 8R10Q peptide effectively delayed the onset of disease and ameliorated the pathological phenotypes.
substance,measurement,setting,value
"H-RRRRRRRRWDQQQQQQQQQQ-NH2 [Peptide 8R10Q, NH2-(R)8-W-D-(Q)10-CONH2]",aggregated 109QmHtt by filter trap assay,"109QmHtt [1]; 20 μM peptide added at 8 hours (T1) or 8 plus 24 hours (T1+T2) after transfection, vs water or 8R",significantly reduced
same,aggregated 109QmHtt by filter trap assay,109QmHtt [1]; peptide added at 24 hours alone,no obvious effects
same,ratio of the MG132:DMSO 109QmHtt,109QmHtt [2],much higher
same,cell growth,[3],ameliorated the reduction in growth
same,T maze test memory,"R6/2 transgenic mice; 13 week-old R6/2 mice, intranasal",corrected the memory deficit
same,"rotarod therapeutic effect, intracerebral delivery",R6/2 transgenic mice; Alzet osmotic minipumps into the neostriatum,very similar therapeutic effect to that given intranasally
same,"diabetic phenotype, inflammatory index and abnormal liver function",R6/2 transgenic mice; R6/2 mice,decreased
same,diabetes phenotype,"R6/2 transgenic mice; R6/2 mice, intracerebral",significantly corrected the diabetes phenotype
same,blood sugar,"R6/2 transgenic mice; R6/2 mice, intranasal",delayed the rise and decreased the level of blood sugar
same,prevention of premature death,"R6/2 transgenic mice; R6/2 mice, intranasal, at 16 weeks of age",41%
same,age until which motor deterioration (rotarod) was delayed,"R6/2 transgenic mice; R6/2 mice, intranasal, deterioration significant from 11 weeks with PBS",13 weeks
same,body weights,"R6/2 transgenic mice; WT or R6/2 mice, intranasal or intracerebral route",remained comparable to those treated with PBS
